The values that follow come from publication PMC5933782, “Molecular structures of cdc2-like kinases in complex with a new inhibitor chemotype” (PLoS ONE, 2018).

Chain of CLK2 (O35491 whole entry): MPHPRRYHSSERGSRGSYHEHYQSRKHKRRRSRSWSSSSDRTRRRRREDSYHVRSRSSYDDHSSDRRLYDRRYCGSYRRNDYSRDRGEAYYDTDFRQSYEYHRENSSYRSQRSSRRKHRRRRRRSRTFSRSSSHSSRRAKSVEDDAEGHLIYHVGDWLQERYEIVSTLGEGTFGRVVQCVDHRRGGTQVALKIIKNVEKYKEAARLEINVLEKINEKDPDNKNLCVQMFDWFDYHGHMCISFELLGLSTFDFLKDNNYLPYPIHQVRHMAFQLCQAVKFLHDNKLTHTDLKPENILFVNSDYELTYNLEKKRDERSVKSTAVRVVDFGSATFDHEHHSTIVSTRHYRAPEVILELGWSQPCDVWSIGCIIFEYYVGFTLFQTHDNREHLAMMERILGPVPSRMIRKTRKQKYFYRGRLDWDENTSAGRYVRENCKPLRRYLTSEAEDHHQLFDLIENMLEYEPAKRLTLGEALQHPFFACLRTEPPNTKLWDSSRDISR

One assay relates to CDK1/cyclin B. As to the kind of experiment: radiometric protein kinase assay. Type of assay: biochemical, starfish. The conditions noted are these: 10 µM concentration; ± SEM.
Take `O=C1NCc2ccc3c(-c4ccccc4)c[nH]c3c21` [8a, 3-Phenyl-6,7-dihydropyrrolo[3,4-g]indol-8(1H)-one]: the “Residual enzyme activity CDK1/cyclin B” value was determined as 71±21%.

Still in this assay, the particulars now being: 15 μmol/L ATP.
On to `O=C1NCc2ccc3c(-c4ccccc4)c(Br)[nH]c3c21` [compound 16, 2-Bromo-3-phenyl-6,7-dihydropyrrolo[3,4-g]indol-8(1H)-one], for which the IC50 is > 10 µM.
The same measure, in the same setting: with `O=C1NCc2ccc3c(-c4ccccc4)c[nH]c3c21` [8a, 3-Phenyl-6,7-dihydropyrrolo[3,4-g]indol-8(1H)-one] the figure was > 10 µM.

In a further assay the target is T1, CDK2/cyclin A (Homo sapiens, UniProt P24941).
T1 construct: made in house
As to the kind of experiment: radiometric protein kinase assay. Type of assay: biochemical. The conditions noted are these: 10 µM concentration; ± SEM; read-out: Residual enzyme activity CDK2/cyclin A.
On to `O=C1NCc2ccc3c(-c4ccccc4)c[nH]c3c21` [8a, 3-Phenyl-6,7-dihydropyrrolo[3,4-g]indol-8(1H)-one], for which the remaining activity at 10 µM amounted to 101 ± 6%.

Staying with this assay, now noted: 15 μmol/L ATP; read-out: IC50 CDK2/cyclinA.
`O=C1NCc2ccc3c(-c4ccccc4)c(Br)[nH]c3c21` [compound 16, 2-Bromo-3-phenyl-6,7-dihydropyrrolo[3,4-g]indol-8(1H)-one]: the IC50 was > 10 µM.
On the same count and under the same terms, with `O=C1NCc2ccc3c(-c4ccccc4)c[nH]c3c21` [8a, 3-Phenyl-6,7-dihydropyrrolo[3,4-g]indol-8(1H)-one] the figure was > 10 µM.

For a further assay, the target named is T2, CDK5/p25 (Homo sapiens, UniProt Q00535).
T2 construct: made in house
T2 sequence (Q00535 whole entry): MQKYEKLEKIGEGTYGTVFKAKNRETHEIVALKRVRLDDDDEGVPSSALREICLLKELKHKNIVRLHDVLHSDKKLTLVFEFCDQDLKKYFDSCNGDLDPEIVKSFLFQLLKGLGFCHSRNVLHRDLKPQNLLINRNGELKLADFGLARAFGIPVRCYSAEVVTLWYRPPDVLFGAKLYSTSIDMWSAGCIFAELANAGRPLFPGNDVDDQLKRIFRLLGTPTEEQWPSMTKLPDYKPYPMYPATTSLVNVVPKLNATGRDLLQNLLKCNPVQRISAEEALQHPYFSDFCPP
T2 sequence (Q15078 99-307 partner limits assumed): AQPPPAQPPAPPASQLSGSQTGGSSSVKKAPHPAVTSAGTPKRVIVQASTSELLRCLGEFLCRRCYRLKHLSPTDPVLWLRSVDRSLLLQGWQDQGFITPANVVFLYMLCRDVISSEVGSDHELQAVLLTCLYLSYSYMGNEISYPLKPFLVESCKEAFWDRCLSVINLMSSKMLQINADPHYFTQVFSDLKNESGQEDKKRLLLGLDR
The experiment in a line: radiometric protein kinase assay. The conditions noted are these: 10 µM concentration; ± SEM; read-out: Residual enzyme activity CDK5/p25. The format is biochemical.
Consider `O=C1NCc2ccc3c(-c4ccccc4)c[nH]c3c21` [8a, 3-Phenyl-6,7-dihydropyrrolo[3,4-g]indol-8(1H)-one], for which the remaining activity at 10 µM is 107 ± 20%.

The assay is the same for the next values; noted with them: 15 μmol/L ATP.
As for `O=C1NCc2ccc3c(-c4ccccc4)c(Br)[nH]c3c21` [compound 16, 2-Bromo-3-phenyl-6,7-dihydropyrrolo[3,4-g]indol-8(1H)-one], the IC50 is > 10 µM.
The same measure, in the same setting: with `O=C1NCc2ccc3c(-c4ccccc4)c[nH]c3c21` [8a, 3-Phenyl-6,7-dihydropyrrolo[3,4-g]indol-8(1H)-one] the figure was > 10 µM.

In the next assay the test system is CK1δ/ε. As to the kind of experiment: radiometric protein kinase assay. The format is biochemical, porcine. The settings on record: 10 µM concentration; ± SEM.
On to `O=C1NCc2ccc3c(-c4ccccc4)c[nH]c3c21` [8a, 3-Phenyl-6,7-dihydropyrrolo[3,4-g]indol-8(1H)-one], for which the “Residual enzyme activity CK1” value was found to be 91±4%.

Staying with this assay, now noted: 15 μmol/L ATP; read-out: IC50 CK1.
Regarding `O=C1NCc2ccc3c(-c4ccccc4)c(Br)[nH]c3c21` [compound 16, 2-Bromo-3-phenyl-6,7-dihydropyrrolo[3,4-g]indol-8(1H)-one], the IC50 is > 10 µM.
Still for that read-out and setting: as for `O=C1NCc2ccc3c(-c4ccccc4)c[nH]c3c21` [8a, 3-Phenyl-6,7-dihydropyrrolo[3,4-g]indol-8(1H)-one], the figure is > 10 µM.

A further assay concerns the target DYRK1A (Homo sapiens, UniProt Q13627). As to the kind of experiment: radiometric protein kinase assay. The settings on record: 10 µM concentration; ± SEM; read-out: Residual enzyme activity DYRK 1A. The format is biochemical.
Turning to `O=C1NCc2ccc3c(-c4ccccc4)c[nH]c3c21` [8a, 3-Phenyl-6,7-dihydropyrrolo[3,4-g]indol-8(1H)-one], the remaining activity at 10 µM was 61 ± 12%.

The assay is the same for the next values; noted with them: 15 μmol/L ATP; read-out: IC50 DYRK 1A.
`O=C1NCc2ccc3c(-c4ccccc4)c(Br)[nH]c3c21` [compound 16, 2-Bromo-3-phenyl-6,7-dihydropyrrolo[3,4-g]indol-8(1H)-one]: the IC50 stood at 1.9 µM.
Turning to `O=C1NCc2ccc3c(-c4ccccc4)c[nH]c3c21` [8a, 3-Phenyl-6,7-dihydropyrrolo[3,4-g]indol-8(1H)-one], the IC50 was > 10 µM.

For a further assay, the target named is DYRK1B (Homo sapiens, UniProt Q9Y463). The experiment in a line: radiometric protein kinase assay. Type of assay: biochemical. The conditions noted are these: 10 µM concentration; ± SEM; read-out: Residual enzyme activity DYRK 1B.
Chain of DYRK1B (Q9Y463 whole entry): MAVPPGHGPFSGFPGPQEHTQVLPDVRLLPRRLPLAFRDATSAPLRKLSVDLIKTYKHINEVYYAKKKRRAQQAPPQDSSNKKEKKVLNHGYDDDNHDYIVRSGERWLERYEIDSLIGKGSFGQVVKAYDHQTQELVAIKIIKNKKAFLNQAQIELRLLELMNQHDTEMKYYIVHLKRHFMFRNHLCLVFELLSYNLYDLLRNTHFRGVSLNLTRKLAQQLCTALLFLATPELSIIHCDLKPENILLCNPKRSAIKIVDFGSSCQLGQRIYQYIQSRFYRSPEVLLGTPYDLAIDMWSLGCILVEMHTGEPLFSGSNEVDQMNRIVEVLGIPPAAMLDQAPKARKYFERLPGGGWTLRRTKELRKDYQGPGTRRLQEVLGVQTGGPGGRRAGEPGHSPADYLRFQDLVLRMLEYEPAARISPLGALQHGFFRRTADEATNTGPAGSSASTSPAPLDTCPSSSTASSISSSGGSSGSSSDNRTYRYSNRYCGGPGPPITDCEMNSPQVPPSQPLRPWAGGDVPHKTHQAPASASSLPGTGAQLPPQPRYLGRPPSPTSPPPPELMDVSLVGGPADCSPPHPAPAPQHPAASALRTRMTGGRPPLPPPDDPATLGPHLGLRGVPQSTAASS
`O=C1NCc2ccc3c(-c4ccccc4)c[nH]c3c21` [8a, 3-Phenyl-6,7-dihydropyrrolo[3,4-g]indol-8(1H)-one]: the remaining activity at 10 µM was determined as 51 ± 9%.

Staying with this assay, now noted: 15 μmol/L ATP; read-out: IC50 DYRK 1B.
`O=C1NCc2ccc3c(-c4ccccc4)c(Br)[nH]c3c21` [compound 16, 2-Bromo-3-phenyl-6,7-dihydropyrrolo[3,4-g]indol-8(1H)-one]: the IC50 came out at 1.3 µM.
Still for that read-out and setting: with `O=C1NCc2ccc3c(-c4ccccc4)c[nH]c3c21` [8a, 3-Phenyl-6,7-dihydropyrrolo[3,4-g]indol-8(1H)-one] the figure was 4.8 µM.

The target of another assay is T3, DYRK2 (Homo sapiens, UniProt Q92630).
T3 sequence (Q92630 1-601): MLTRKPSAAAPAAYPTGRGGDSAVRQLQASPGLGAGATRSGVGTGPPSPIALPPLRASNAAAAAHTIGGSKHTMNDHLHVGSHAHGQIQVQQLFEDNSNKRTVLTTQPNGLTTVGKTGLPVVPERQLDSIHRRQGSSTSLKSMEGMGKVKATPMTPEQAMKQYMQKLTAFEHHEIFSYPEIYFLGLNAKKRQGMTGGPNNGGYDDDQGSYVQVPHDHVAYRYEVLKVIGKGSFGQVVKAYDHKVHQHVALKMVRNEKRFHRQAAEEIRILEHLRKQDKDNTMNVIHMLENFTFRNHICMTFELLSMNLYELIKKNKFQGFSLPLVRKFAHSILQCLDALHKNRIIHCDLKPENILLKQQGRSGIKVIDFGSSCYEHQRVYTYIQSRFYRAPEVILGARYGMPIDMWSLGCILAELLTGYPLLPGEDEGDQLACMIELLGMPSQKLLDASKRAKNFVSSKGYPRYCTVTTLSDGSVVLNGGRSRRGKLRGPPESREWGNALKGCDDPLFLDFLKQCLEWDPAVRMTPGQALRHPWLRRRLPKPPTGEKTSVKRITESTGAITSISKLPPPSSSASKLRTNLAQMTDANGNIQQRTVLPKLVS
As to the kind of experiment: radiometric protein kinase assay. The format is biochemical. The settings on record: 10 µM concentration; ± SEM; read-out: Residual enzyme activity DYRK 2.
In the case of `O=C1NCc2ccc3c(-c4ccccc4)c[nH]c3c21` [8a, 3-Phenyl-6,7-dihydropyrrolo[3,4-g]indol-8(1H)-one], the remaining activity at 10 µM stood at 69 ± 15%.

Still in this assay, the particulars now being: 15 μmol/L ATP; read-out: IC50 DYRK 2.
On to `O=C1NCc2ccc3c(-c4ccccc4)c(Br)[nH]c3c21` [compound 16, 2-Bromo-3-phenyl-6,7-dihydropyrrolo[3,4-g]indol-8(1H)-one], for which the IC50 turned out to be 1.8 µM.

The target in the next assay is T4, DYRK3 (Homo sapiens, UniProt O43781).
T4 sequence (O43781 1-588): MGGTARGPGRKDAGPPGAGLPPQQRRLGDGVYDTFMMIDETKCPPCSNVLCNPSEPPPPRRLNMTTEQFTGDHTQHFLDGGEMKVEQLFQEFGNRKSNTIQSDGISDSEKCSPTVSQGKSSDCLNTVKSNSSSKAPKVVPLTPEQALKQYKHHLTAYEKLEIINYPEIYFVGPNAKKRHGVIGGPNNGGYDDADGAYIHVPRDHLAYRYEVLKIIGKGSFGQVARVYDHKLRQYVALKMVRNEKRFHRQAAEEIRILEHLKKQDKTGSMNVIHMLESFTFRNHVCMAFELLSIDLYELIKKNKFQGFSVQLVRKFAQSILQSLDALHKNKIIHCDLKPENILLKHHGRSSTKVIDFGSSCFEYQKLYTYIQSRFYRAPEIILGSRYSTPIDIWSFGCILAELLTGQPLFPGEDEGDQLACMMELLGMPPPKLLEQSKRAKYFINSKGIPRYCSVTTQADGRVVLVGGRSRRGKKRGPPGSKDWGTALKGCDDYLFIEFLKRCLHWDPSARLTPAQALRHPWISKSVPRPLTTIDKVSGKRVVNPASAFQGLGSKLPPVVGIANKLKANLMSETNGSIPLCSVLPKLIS
As to the kind of experiment: radiometric protein kinase assay. Type of assay: biochemical. The settings on record: 10 µM concentration; ± SEM; read-out: Residual enzyme activity DYRK 3.
For the compound `O=C1NCc2ccc3c(-c4ccccc4)c[nH]c3c21` [8a, 3-Phenyl-6,7-dihydropyrrolo[3,4-g]indol-8(1H)-one], the remaining activity at 10 µM turned out to be 102 ± 13%.

The assay is the same for the next values; noted with them: 15 μmol/L ATP; read-out: IC50 DYRK 3.
`O=C1NCc2ccc3c(-c4ccccc4)c(Br)[nH]c3c21` [compound 16, 2-Bromo-3-phenyl-6,7-dihydropyrrolo[3,4-g]indol-8(1H)-one]: the IC50 amounted to 3.9 µM.
On the same count and under the same terms, as for `O=C1NCc2ccc3c(-c4ccccc4)c[nH]c3c21` [8a, 3-Phenyl-6,7-dihydropyrrolo[3,4-g]indol-8(1H)-one], the figure is > 10 µM.

A further assay concerns GSK-3. As to the kind of experiment: radiometric protein kinase assay. Type of assay: biochemical, porcine. The settings on record: 10 µM concentration; ± SEM.
As for `O=C1NCc2ccc3c(-c4ccccc4)c[nH]c3c21` [8a, 3-Phenyl-6,7-dihydropyrrolo[3,4-g]indol-8(1H)-one], the “Residual enzyme activity GSK3” value stood at 111±19%.

The assay is the same for the next values; noted with them: 15 μmol/L ATP; read-out: IC50 GSK3.
As to `O=C1NCc2ccc3c(-c4ccccc4)c(Br)[nH]c3c21` [compound 16, 2-Bromo-3-phenyl-6,7-dihydropyrrolo[3,4-g]indol-8(1H)-one], the IC50 is > 10 µM.
As for `O=C1NCc2ccc3c(-c4ccccc4)c[nH]c3c21` [8a, 3-Phenyl-6,7-dihydropyrrolo[3,4-g]indol-8(1H)-one], the IC50 is > 10 µM.

The target in the next assay is CDK9/cyclin T (Homo sapiens, UniProt P50750). As to the kind of experiment: radiometric protein kinase assay.
Chain of CDK9/cyclin T (P50750 whole entry): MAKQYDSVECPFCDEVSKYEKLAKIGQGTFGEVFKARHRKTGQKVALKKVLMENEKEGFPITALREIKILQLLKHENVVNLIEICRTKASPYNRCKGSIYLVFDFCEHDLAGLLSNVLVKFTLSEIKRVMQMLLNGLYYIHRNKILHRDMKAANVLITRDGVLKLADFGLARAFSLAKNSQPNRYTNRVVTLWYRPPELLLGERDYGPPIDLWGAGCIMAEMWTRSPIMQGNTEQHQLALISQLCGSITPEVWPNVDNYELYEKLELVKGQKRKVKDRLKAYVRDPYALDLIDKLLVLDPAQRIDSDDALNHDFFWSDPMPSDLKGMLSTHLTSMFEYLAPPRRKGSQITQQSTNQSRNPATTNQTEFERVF
Chain of CDK9/cyclin T (O60563 whole entry partner): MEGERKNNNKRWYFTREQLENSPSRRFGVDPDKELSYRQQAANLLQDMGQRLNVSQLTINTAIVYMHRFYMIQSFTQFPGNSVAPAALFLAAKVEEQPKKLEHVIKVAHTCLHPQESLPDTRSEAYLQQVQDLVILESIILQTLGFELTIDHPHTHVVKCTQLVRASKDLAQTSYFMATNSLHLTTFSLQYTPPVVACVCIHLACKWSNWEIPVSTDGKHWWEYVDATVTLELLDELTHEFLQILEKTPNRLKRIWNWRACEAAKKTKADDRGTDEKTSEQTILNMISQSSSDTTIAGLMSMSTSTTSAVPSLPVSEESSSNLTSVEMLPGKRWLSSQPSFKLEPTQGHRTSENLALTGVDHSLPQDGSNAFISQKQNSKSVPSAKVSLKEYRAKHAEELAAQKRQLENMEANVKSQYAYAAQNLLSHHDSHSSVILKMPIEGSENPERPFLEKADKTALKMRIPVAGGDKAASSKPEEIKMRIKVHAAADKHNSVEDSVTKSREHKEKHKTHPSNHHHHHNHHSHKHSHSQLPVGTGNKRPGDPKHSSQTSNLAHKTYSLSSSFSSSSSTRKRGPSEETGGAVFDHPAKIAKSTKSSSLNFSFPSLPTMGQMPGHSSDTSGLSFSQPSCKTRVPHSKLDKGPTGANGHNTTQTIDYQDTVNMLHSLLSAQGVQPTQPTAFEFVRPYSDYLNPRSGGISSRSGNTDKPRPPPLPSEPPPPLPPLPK
Settings: not given
Turning to `O=C1NCc2ccc3c(-c4ccccc4)c(Br)[nH]c3c21` [compound 16, 2-Bromo-3-phenyl-6,7-dihydropyrrolo[3,4-g]indol-8(1H)-one], the IC50 is > 10 µM.
On the same count and under the same terms, as for `O=C1NCc2ccc3c(-c4ccccc4)c[nH]c3c21` [8a, 3-Phenyl-6,7-dihydropyrrolo[3,4-g]indol-8(1H)-one], the figure is > 10 µM.

The same assay, now with this note: read-out: Residual enzyme activity CDK9/cyclin T.
With `O=C1NCc2ccc3c(-c4ccccc4)c[nH]c3c21` [8a, 3-Phenyl-6,7-dihydropyrrolo[3,4-g]indol-8(1H)-one], the remaining activity at 10 µM came out at 85 ± 5%.

A further assay deals with CLK1 (Mus musculus, UniProt P22518). As to the kind of experiment: radiometric protein kinase assay.
Chain of CLK1 (P22518 whole entry): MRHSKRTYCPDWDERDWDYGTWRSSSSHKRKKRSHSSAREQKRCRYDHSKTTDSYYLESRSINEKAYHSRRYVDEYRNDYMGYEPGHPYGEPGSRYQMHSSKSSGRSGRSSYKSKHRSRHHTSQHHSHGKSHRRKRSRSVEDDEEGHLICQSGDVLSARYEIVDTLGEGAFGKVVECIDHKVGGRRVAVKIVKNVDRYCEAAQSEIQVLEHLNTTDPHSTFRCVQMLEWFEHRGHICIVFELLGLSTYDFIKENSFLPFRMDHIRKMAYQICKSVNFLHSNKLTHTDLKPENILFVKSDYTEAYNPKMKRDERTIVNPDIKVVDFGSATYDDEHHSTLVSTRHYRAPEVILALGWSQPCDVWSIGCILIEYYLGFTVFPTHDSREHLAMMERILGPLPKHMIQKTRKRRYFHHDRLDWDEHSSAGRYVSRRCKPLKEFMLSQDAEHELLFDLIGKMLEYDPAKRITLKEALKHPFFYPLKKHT
Settings: not given
`O=C1NCc2ccc3c(-c4ccccc4)c(Br)[nH]c3c21` [compound 16, 2-Bromo-3-phenyl-6,7-dihydropyrrolo[3,4-g]indol-8(1H)-one] yielded an IC50 of 0.11 µM.
On the same count and under the same terms, as for `O=C1NCc2ccc3c(-c4ccccc4)c[nH]c3c21` [8a, 3-Phenyl-6,7-dihydropyrrolo[3,4-g]indol-8(1H)-one], the figure is 0.046 µM.

Still in this assay, the particulars now being: read-out: Residual enzyme activity CLK 1.
For `O=C1NCc2ccc3c(-c4ccccc4)c[nH]c3c21` [8a, 3-Phenyl-6,7-dihydropyrrolo[3,4-g]indol-8(1H)-one], the remaining activity at 10 µM is 8 ± 2%.

A further assay has as its target CLK2 (Mus musculus, UniProt O35491). The experiment in a line: radiometric protein kinase assay.
Settings: not given
As to `O=C1NCc2ccc3c(-c4ccccc4)c(Br)[nH]c3c21` [compound 16, 2-Bromo-3-phenyl-6,7-dihydropyrrolo[3,4-g]indol-8(1H)-one], the IC50 turned out to be 0.11 µM.
The same measure, in the same setting: as for `O=C1NCc2ccc3c(-c4ccccc4)c[nH]c3c21` [8a, 3-Phenyl-6,7-dihydropyrrolo[3,4-g]indol-8(1H)-one], the figure is 0.21 µM.

The same assay, now with this note: read-out: Residual enzyme activity CLK 2.
Consider `O=C1NCc2ccc3c(-c4ccccc4)c[nH]c3c21` [8a, 3-Phenyl-6,7-dihydropyrrolo[3,4-g]indol-8(1H)-one], for which the remaining activity at 10 µM came to 14 ± 3%.

The next assay deals with CLK3 (Mus musculus, UniProt O35492). The experiment in a line: radiometric protein kinase assay.
Chain of CLK3 (O35492 whole entry): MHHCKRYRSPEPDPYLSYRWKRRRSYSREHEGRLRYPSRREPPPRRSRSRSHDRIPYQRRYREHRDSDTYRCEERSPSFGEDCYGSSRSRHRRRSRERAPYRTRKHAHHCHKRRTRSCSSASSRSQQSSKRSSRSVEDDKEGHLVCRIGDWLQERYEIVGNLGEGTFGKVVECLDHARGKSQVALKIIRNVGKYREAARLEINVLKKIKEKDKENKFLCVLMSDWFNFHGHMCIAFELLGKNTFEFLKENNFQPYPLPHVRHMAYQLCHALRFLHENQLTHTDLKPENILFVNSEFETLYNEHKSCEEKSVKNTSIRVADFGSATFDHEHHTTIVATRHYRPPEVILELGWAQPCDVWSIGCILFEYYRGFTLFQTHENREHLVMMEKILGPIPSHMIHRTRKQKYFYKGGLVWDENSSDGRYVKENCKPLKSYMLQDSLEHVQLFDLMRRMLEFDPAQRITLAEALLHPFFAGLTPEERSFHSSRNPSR
Settings: not given
In turn, `O=C1NCc2ccc3c(-c4ccccc4)c(Br)[nH]c3c21` [compound 16, 2-Bromo-3-phenyl-6,7-dihydropyrrolo[3,4-g]indol-8(1H)-one] came in with an IC50 of 2.8 µM.
Same read-out and setting: with `O=C1NCc2ccc3c(-c4ccccc4)c[nH]c3c21` [8a, 3-Phenyl-6,7-dihydropyrrolo[3,4-g]indol-8(1H)-one] the figure was > 10 µM.

Still in this assay, the particulars now being: read-out: Residual enzyme activity CLK 3.
For `O=C1NCc2ccc3c(-c4ccccc4)c[nH]c3c21` [8a, 3-Phenyl-6,7-dihydropyrrolo[3,4-g]indol-8(1H)-one], the remaining activity at 10 µM turned out to be 78 ± 9%.

The target of another assay is CLK4 (Mus musculus, UniProt O35493). The experiment in a line: radiometric protein kinase assay.
Chain of CLK4 (O35493 whole entry): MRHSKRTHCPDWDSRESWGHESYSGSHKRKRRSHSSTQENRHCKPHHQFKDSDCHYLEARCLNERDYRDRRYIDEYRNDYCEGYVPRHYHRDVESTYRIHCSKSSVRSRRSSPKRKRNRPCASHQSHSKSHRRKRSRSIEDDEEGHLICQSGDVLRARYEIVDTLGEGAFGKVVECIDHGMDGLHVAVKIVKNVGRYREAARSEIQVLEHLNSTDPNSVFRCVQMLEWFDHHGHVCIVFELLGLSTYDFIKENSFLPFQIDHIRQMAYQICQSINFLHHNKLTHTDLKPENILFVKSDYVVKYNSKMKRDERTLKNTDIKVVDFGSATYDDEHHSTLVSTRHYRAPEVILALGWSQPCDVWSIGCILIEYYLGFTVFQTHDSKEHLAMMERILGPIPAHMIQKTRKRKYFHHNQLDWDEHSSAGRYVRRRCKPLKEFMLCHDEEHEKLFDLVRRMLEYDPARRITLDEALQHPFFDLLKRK
Settings: not given
Turning to `O=C1NCc2ccc3c(-c4ccccc4)c(Br)[nH]c3c21` [compound 16, 2-Bromo-3-phenyl-6,7-dihydropyrrolo[3,4-g]indol-8(1H)-one], the IC50 was found to be 0.029 µM.
In the case of `O=C1NCc2ccc3c(-c4ccccc4)c[nH]c3c21` [8a, 3-Phenyl-6,7-dihydropyrrolo[3,4-g]indol-8(1H)-one], the IC50 was found to be 0.12 µM.

The same assay, now with this note: read-out: Residual enzyme activity CLK 4.
Regarding `O=C1NCc2ccc3c(-c4ccccc4)c[nH]c3c21` [8a, 3-Phenyl-6,7-dihydropyrrolo[3,4-g]indol-8(1H)-one], the remaining activity at 10 µM was found to be 2%.
